# Laboratory results taken from patent US20220265629A1, “TREATMENT OF SYSTOLIC DYSFUNCTION AND HEART FAILURE WITH REDUCED EJECTION FRACTION WITH THE COMPOUND (R)-4-(1-((3-(DIFLUOROMETHYL)-1-METHYL-1H-PYRAZOL-4-YL)SULFONYL)-1-FLUOROETHYL)-N-(ISOXAZOL-3-YL)PIPERIDINE-1-CARBOXAMIDE” (MyoKardia, Inc., priority 2019, published 2022).
# Values joined by “and” are separate entries in the source; they are usually repeats but may differ in a detail not shown here. Equal values may be shown once. Read-outs that look alike come from different tables or passages of the source.
# Experiment: HFrEF study Part 2 (MAD Cohorts A-D): plasma pharmacokinetics
# Assay type: in vivo, human
# Conditions: for Plasma concentration, Mean / Plasma concentration, Median: MAD cohorts; for AUC / Cmax / half-life: human, plasma, oral; for half-life: read-out: t1/2, λz (converted)
# Source text: This was a randomized, parallel-group, DB, placebo-controlled, adaptive design, sequential ascending (oral) multiple-close study in stable patients with heart failure. Four MAD Cohorts (A, B, C, D) were enrolled (FIG. 5B). An SRC reviewed results from each cohort and determined the close and confirmed initial sample size for the subsequent cohort. Additionally, the first 3 patients in each cohort had LVEF≥25%; the SRC reviewed preliminary safety data from these patients and decided whether to open cohort enrollment to patients with LVEF<25%.
# After Screening and qualification, patients were confined to a clinical testing facility from Day 1 (Check-in) to Day 11. Each patient initially received placebo BID for 2 days (Days 1 and 2) in single-blinded manner (“run-in” during acclimatization to confinement in the Clinical Testing Unit) prior to receiving the randomized DB study drug treatment on Day 3. All patients then received either placebo or active Compound I for 7 days (Days 3 through 9), with a follow-up period with patients discharged from the unit on Day 11. A final follow-up clinic visit was conducted on Day 16. More than one patient could be closed in a cohort at the same time or during the same week depending on administrative issues, i.e., capacity and scheduling.
# Patients were closed twice daily (every 12 hours). Doses could occur±2 hours from scheduled dosing times as long as closes were separated by at least 10 hours and by no more than 14 hours. The exception to the twice daily dosing was on Day 9 (last dose of randomized DB study drug treatment). On Day 9, a single morning close was administered.
# During the study, multiple evaluations were performed that included: serial TTE assessments (11-14 TTEs per patient on Days 1, 2, 3, 4, 7, 9, 10 and 11); PK sampling (PK sample collected concomitantly with every post-randomization echocardiogram); ECGs (on Days 2, 3, 4, 7, 9, 10, 11 and 16); troponin (collected concomitantly with every post-randomization ECG); and safety laboratory assessments. Confined patients underwent continuous telemetry. Holter monitoring was performed in all patients at baseline (Days 1-2) and at the end of double-blind treatment (Days 7-9). Vital signs were collected daily.
# Study medication consisted of Compound I 5 mg tablets, 25 mg tablets, 100 mg tablets, or matching placebo tablets. In Part 1 (SAD), Compound I or placebo was administered after an overnight fast (at least 6 hours), while in Part 2 (MAD), Compound I was administered after a 2 hour fast (Cohort A) or with food (Cohorts B, C, and D). The close was ingested with a minimum of 240 mL of water, but more water was ingested as needed. The entire close was administered over a period of up to 15 minutes. The time of close used to determine future assessments was the time the last tablet was taken. In the cohorts for Part 2 (MAD), a BID regimen was used.
# In Part 2 (MAD), Cohort A patients fasted for 2 hours before and 2 hours after dosing. For example, if morning dosing occurred at 8 AM, patients could have a snack at 6 AM and a full breakfast at 10 AM. If afternoon dosing occurred at 8 PM, patients could have dinner at 6 PM and a snack at 10 PM. […] Cohort B, C, and D patients ingested food with each close.
# [1] = MAD Cohort C, 75 mg BID (with food), individual subjects
# [2] = MAD Cohort D, 100 mg BID (with food), Mean
# [3] = plasma concentration group 2000-<3500 ng/mL (n = 26)
# [4] = plasma concentration group <2000 ng/mL (n = 30)
# [5] = plasma concentration group ≥3500 ng/mL (n = 13)
smiles,measurement,setting,value
"Cn1cc(S(=O)(=O)[C@@](C)(F)C2CCN(C(=O)Nc3ccon3)CC2)c(C(F)F)n1 [Compound I, (R)-4-(1-((3-(difluoromethyl)-1-methyl-1H-pyrazol-4-yl)sulfonyl)-1-fluoroethyl)-N-(isoxazol-3-yl)piperidine-1-carboxamide]","Cmax, Day 1",[1],1020 ng/mL and 1190 ng/mL and 1030 ng/mL and 1150 ng/mL and 1650 ng/mL and 1360 ng/mL
same,"Cmax, SS",[1],3860 ng/mL and 1840 ng/mL and 3810 ng/mL and 4140 ng/mL and 4940 ng/mL and 3220 ng/mL and 3930 ng/mL and 4720 ng/mL and 5010 ng/mL
same,"Cmin, SS",[1],1740 ng/mL and 954 ng/mL and 2660 ng/mL and 3240 ng/mL and 3910 ng/mL and 2530 ng/mL and 2440 ng/mL and 3930 ng/mL and 3900 ng/mL
same,"t1/2, λz",[1],13.55 h and 15.34 h and 20.46 h and 23.11 h and 41.54 h and 15.67 h and 13.72 h and 30.37 h and 24.06 h
same,AUC_TAU,"MAD Cohort C, 75 mg BID (with food), steady state, individual subjects",32340 ng·h/mL and 15700 ng·h/mL and 37520 ng·h/mL and 44850 ng·h/mL and 53180 ng·h/mL and 35560 ng·h/mL and 38470 ng·h/mL and 51200 ng·h/mL and 53690 ng·h/mL
same,Accumulation Ratio AUC tau,[2],4.65
same,Accumulation Ratio Cmax,[2],3.89
same,Accumulation_Index,[2],3.30
same,"Cavg, ss",[2],5030 ng/mL
same,"Cmin, SS",[2],4333 ng/mL
same,"Plasma concentration, Mean",[3],2716 ng/mL
same,"Plasma concentration, Median",[3],2740 ng/mL
same,"Plasma concentration, Mean",[4],1169 ng/mL
same,"Plasma concentration, Median",[4],1220 ng/mL
same,"Plasma concentration, Mean",[5],4448 ng/mL
same,"Plasma concentration, Median",[5],4290 ng/mL
same,AUC,"50 mg, MAD Cohort B, 50 mg BID (with food), Mean, read-out: AUCtau, Day 1",7300 ng·h/mL
same,Cmax,"50 mg, MAD Cohort B, 50 mg BID (with food), Mean, read-out: Cmax, Day 1",806 ng/mL
same,Cmax,"50 mg, MAD Cohort B, 50 mg BID (with food), Mean, read-out: Cmax, SS",2770 ng/mL
same,half-life,"50 mg, MAD Cohort B, 50 mg BID (with food), Mean",25.1 h
same,AUC,"50 mg, MAD Cohort B, 50 mg BID (with food), individual subjects, read-out: AUCtau, Day 1",7430 ng·h/mL
same,Cmax,"50 mg, MAD Cohort B, 50 mg BID (with food), individual subjects, read-out: Cmax, Day 1",933 ng/mL
same,Cmax,"50 mg, MAD Cohort B, 50 mg BID (with food), individual subjects, read-out: Cmax, SS",2950 ng/mL
same,AUC,"50 mg, MAD Cohort B, 50 mg BID (with food), steady state, Mean, read-out: AUC_TAU",28900 ng·h/mL
same,AUC,"50 mg, MAD Cohort B, 50 mg BID (with food), steady state, individual subjects, read-out: AUC_TAU",29700 ng·h/mL
same,AUC,"75 mg, MAD Cohort A, 75 mg BID (4 h fasting), Mean, read-out: AUCtau, Day 1",10400 ng·h/mL
same,Cmax,"75 mg, MAD Cohort A, 75 mg BID (4 h fasting), Mean, read-out: Cmax, Day 1",1120 ng/mL
same,Cmax,"75 mg, MAD Cohort A, 75 mg BID (4 h fasting), Mean, read-out: Cmax, SS",4050 ng/mL
same,half-life,"75 mg, MAD Cohort A, 75 mg BID (4 h fasting), Mean",21.4 h
same,AUC,"75 mg, MAD Cohort A, 75 mg BID (4 h fasting), individual subjects, read-out: AUCtau, Day 1",10600 ng·h/mL
same,Cmax,"75 mg, MAD Cohort A, 75 mg BID (4 h fasting), individual subjects, read-out: Cmax, Day 1",1060 ng/mL
same,Cmax,"75 mg, MAD Cohort A, 75 mg BID (4 h fasting), individual subjects, read-out: Cmax, SS",4580 ng/mL
same,AUC,"75 mg, MAD Cohort A, 75 mg BID (4 h fasting), steady state, Mean, read-out: AUC_TAU",41000 ng·h/mL
same,AUC,"75 mg, MAD Cohort A, 75 mg BID (4 h fasting), steady state, individual subjects, read-out: AUC_TAU",46200 ng·h/mL
same,AUC,"75 mg, MAD Cohort C, 75 mg BID (with food), Mean, read-out: AUCtau, Day 1",10600 ng·h/mL
same,Cmax,"75 mg, MAD Cohort C, 75 mg BID (with food), Mean, read-out: Cmax, Day 1",1250 ng/mL
same,Cmax,"75 mg, MAD Cohort C, 75 mg BID (with food), Mean, read-out: Cmax, SS",3940 ng/mL
same,half-life,"75 mg, MAD Cohort C, 75 mg BID (with food), Mean",22 h
same,Cmax,"75 mg, MAD Cohort C, 75 mg BID (with food), individual subjects, read-out: Cmax, Day 1",1780 ng/mL
same,AUC,"75 mg, MAD Cohort C, 75 mg BID (with food), steady state, Mean, read-out: AUC_TAU",40300 ng·h/mL
same,AUC,"100 mg, MAD Cohort D, 100 mg BID (with food), Mean, read-out: AUCtau, Day 1",12900 ng·h/mL
same,Cmax,"100 mg, MAD Cohort D, 100 mg BID (with food), Mean, read-out: Cmax, Day 1",1480 ng/mL
same,Cmax,"100 mg, MAD Cohort D, 100 mg BID (with food), Mean, read-out: Cmax, SS",5680 ng/mL
same,half-life,"100 mg, MAD Cohort D, 100 mg BID (with food), Mean",23.1 h
same,AUC,"100 mg, MAD Cohort D, 100 mg BID (with food), individual subjects, read-out: AUCtau, Day 1",11600 ng·h/mL
same,Cmax,"100 mg, MAD Cohort D, 100 mg BID (with food), individual subjects, read-out: Cmax, Day 1",1560 ng/mL
same,Cmax,"100 mg, MAD Cohort D, 100 mg BID (with food), individual subjects, read-out: Cmax, SS",5210 ng/mL
same,half-life,"100 mg, MAD Cohort D, 100 mg BID (with food), individual subjects",24.3 h
same,AUC,"100 mg, MAD Cohort D, 100 mg BID (with food), steady state, Mean, read-out: AUC_TAU",60400 ng·h/mL
